Reference: publication PMC6199744, “Development of Chemical Proteomics for the Folateome and Analysis of the Kinetoplastid Folateome” (ACS Infectious Diseases, 2018)
Like-named read-outs stand apart in the source and are kept apart here.

Tested on: T. brucei lysate proteins
Type: binding, Trypanosoma brucei

CCCCCCOc1ccc(Cc2cnc(N)nc2N)cc1 [compound 1]
fold change (relative to vehicle control = 1, protein TB09.160.3270 ATP-DEPENDENT DEAD BOX HELICASE, PUTATIVE): 0.99
fold change (relative to vehicle control = 1, protein TB09.160.4250 TR[…]): 0.87
fold change (relative to vehicle control = 1, protein TB09.211.3540 GLYCEROL KINASE, GLYCOSOMAL): 0.92
fold change (relative to vehicle control = 1, protein TB11.01.0450 PROTEIN PHOSPHATASE 1, PUTATIVE): 0.96
fold change (relative to vehicle control = 1, protein TB11.01.1270 NUCLEIC ACID BINDING PROTEIN, PUTATIVE): 0.97
fold change (relative to vehicle control = 1, protein TB11.01.1290 14-3-3-I PROTEIN): 0.77
fold change (relative to vehicle control = 1, protein TB11.02.1135 DYNEIN LIGHT CHAIN, PUTATIVE): 0.88
fold change (relative to vehicle control = 1, protein TB11.02.4700 14-3-3 PROTEIN): 0.96
fold change (relative to vehicle control = 1, protein TB11.03.0815 DYNEIN LIGHT CHAIN): 0.76
fold change (relative to vehicle control = 1, protein TB11.50.0007 DYNEIN LIGHT CHAIN LC8, PUTATIVE): 0.99
fold change (relative to vehicle control = 1, protein TB427TMP.01.1400 GLYCYL-TRNA SYNTHETASE, PUTATIVE): 0.88
fold change (relative to vehicle control = 1, protein TB427TMP.01.1830 HY[…], CONSERVED): 0.86
fold change (relative to vehicle control = 1, protein TB427TMP.01.3370 […] PROTEIN, PUTATIVE): 0.94
fold change (relative to vehicle control = 1, protein TB427TMP.01.6880 CYTOSOLIC COAT PROTEIN, PUTATIVE): 0.88
fold change (relative to vehicle control = 1, protein TB427TMP.01.7490 HY[…], CONSERVED): 0.95
fold change (relative to vehicle control = 1, protein TB427TMP.01.7530 HY[…], CONSERVED): 0.92
fold change (relative to vehicle control = 1, protein TB427TMP.02.0750 T-COMPLEX PROTEIN 1, ZETA SUBUNIT, PUTATIVE): 0.94
fold change (relative to vehicle control = 1, protein TB427TMP.02.1120 ADENYL[…], PUTATIVE): 0.93
fold change (relative to vehicle control = 1, protein TB427TMP.02.1460 HY[…], CONSERVED): 0.82
fold change (relative to vehicle control = 1, protein TB427TMP.02.3120 MALIC ENZYME, PUTATIVE): 0.77
fold change (relative to vehicle control = 1, protein TB427TMP.02.4550 HY[…], CONSERVED): 0.91
fold change (relative to vehicle control = 1, protein TB427TMP.02.5450 GLUCOSE-REGULATED PROTEIN 78, PUTATIVE): 0.89
fold change (relative to vehicle control = 1, protein TB427TMP.02.5660 HY[…], CONSERVED): 0.82
fold change (relative to vehicle control = 1, protein TB427TMP.03.0090 RIBOKINASE, PUTATIVE): 0.87
fold change (relative to vehicle control = 1, protein TB427TMP.03.0460 HY[…], CONSERVED): 0.85
fold change (relative to vehicle control = 1, protein TB427TMP.160.4770 PROTEIN KINASE, PUTATIVE): 0.92
fold change (relative to vehicle control = 1, protein TB427TMP.160.4910 FLAVOPROTEIN MONOOXYGENASE, PUTATIVE): 0.89
fold change (relative to vehicle control = 1, protein TB427TMP.22.0004 HY[…], CONSERVED): 0.97
fold change (relative to vehicle control = 1, protein TB427.01.3830 GLUCOSE-6-PHOSPHATE ISOMERASE, GLYCOSOMAL): 1
fold change (relative to vehicle control = 1, protein TB427.01.4050 PROTEIN P[…] EF-HAND DOMAINS (PPEF)): 0.94
fold change (relative to vehicle control = 1, protein TB427.02.1170 RETRO[…] SPOT (RHS) PROTEIN, PUTATIVE): 0.85
fold change (relative to vehicle control = 1, protein TB427.02.6220 ADENOSINE TRANSPORTER 2, PUTATIVE): 0.95
fold change (relative to vehicle control = 1, protein TB427.03.3160 POLY(A) POLYMERASE): 0.97
fold change (relative to vehicle control = 1, protein TB427.03.3560 HY[…], CONSERVED): 0.92
fold change (relative to vehicle control = 1, protein TB427.03.4190 ENDOSOMAL INTEGRAL MEMBRANE PROTEIN, PUTATIVE): 0.99
fold change (relative to vehicle control = 1, protein TB427.03.5420 PROTEIN TRANSPORT PROTEIN SEC24): 0.8
fold change (relative to vehicle control = 1, protein TB427.04.1510 PHOSPHOLIPID-TRA[…], PUTATIVE): 0.88
fold change (relative to vehicle control = 1, protein TB427.05.1320 HY[…], CONSERVED): 0.97
fold change (relative to vehicle control = 1, protein TB427.05.300 THYMINE-7-HYDROXYLASE, PUTATIVE): 0.92
fold change (relative to vehicle control = 1, protein TB427.05.3800 GLUTAMINE HYDROLYSING (NOT AMMONIA-DEPENDENT) […] PHOSPHATE SYNTHASE, PUTATIVE): 0.88
fold change (relative to vehicle control = 1, protein TB427.05.4530 FATTY ACID ELONGASE, PUTATIVE): 0.75
fold change (relative to vehicle control = 1, protein TB427.06.2550 RNA-BINDING PROTEIN, PUTATIVE): 0.89
fold change (relative to vehicle control = 1, protein TB427.06.3650 ADP-RI[…], PUTATIVE): 0.84
fold change (relative to vehicle control = 1, protein TB427.06.3860 HY[…], CONSERVED): 0.55
fold change (relative to vehicle control = 1, protein TB427.07.2340 40S RIBOSOMAL PROTEIN S15, PUTATIVE): 0.82
fold change (relative to vehicle control = 1, protein TB427.07.2570 MRNA […], PUTATIVE): 0.69
fold change (relative to vehicle control = 1, protein TB427.07.7500 THYMINE-7-HYDROXYLASE, PUTATIVE): 0.94
fold change (relative to vehicle control = 1, protein TB427.08.3150 T-COMPLEX PROTEIN 1, GAMMA SUBUNIT, PUTATIVE): 0.9
fold change (relative to vehicle control = 1, protein TB427.08.3490 HY[…], CONSERVED): 0.94
fold change (relative to vehicle control = 1, protein TB427.08.5460 FLAGELLAR CALCIUM-BINDING PROTEIN): 0.99
fold change (relative to vehicle control = 1, protein TB427.08.6110 HY[…], CONSERVED): 0.71
fold change (relative to vehicle control = 1, protein TB427.10.11930 NAD OR NADP DEPENDENT OXIDOREDUCTASE, PUTATIVE): 0.63
fold change (relative to vehicle control = 1, protein TB427.10.12510 P-TYPE H+-ATPASE, PUTATIVE): 0.99
fold change (relative to vehicle control = 1, protein TB427.10.13110 DYNEIN LIGHT CHAIN, PUTATIVE): 0.86
fold change (relative to vehicle control = 1, protein TB427.10.13880 HY[…], CONSERVED): 0.88
fold change (relative to vehicle control = 1, protein TB427.10.14140 PYRUVATE KINASE 1): 0.98
fold change (relative to vehicle control = 1, protein TB427.10.14910 SA[…] GLYCOPROTEIN, PUTATIVE): 1
fold change (relative to vehicle control = 1, protein TB427.10.15180 […] PROTEIN, PUTATIVE): 0.82
fold change (relative to vehicle control = 1, protein TB427.10.2350 PYRUVATE DEH[…] E3 BINDING PROTEIN, PUTATIVE): 0.7
fold change (relative to vehicle control = 1, protein TB427.10.4940 NUCLEAR DBF2-RELATED KINASE): 0.93
fold change (relative to vehicle control = 1, protein TB427.10.7630 HY[…], CONSERVED): 0.98
fold change (relative to vehicle control = 1, protein TB427.10.9800 60S RIBOSOMAL PROTEIN L22): 1
fold change (relative to vehicle control = 1, protein TB927.10.12840 MIT[…] PROTEIN, PUTATIVE): 0.8
fold change (relative to vehicle control = 1, protein TB927.10.13780 GLYCOGEN SYNTHASE KINASE 3): 0.99
fold change (relative to vehicle control = 1, protein TB927.10.14980 INTR[…] PROTEIN IFT52, PUTATIVE): 0.96
fold change (relative to vehicle control = 1, protein TB927.1.2330 BETA TUBULIN): 0.9
fold change (relative to vehicle control = 1, protein TB927.1.2400 ALPHA TUBULIN): 0.89
fold change (relative to vehicle control = 1, protein TB927.10.3280 60S RIBOSOMAL PROTEINS L38, PUTATIVE): 0.97
fold change (relative to vehicle control = 1, protein TB927.10.4180 TFIIF-[…] PHOSPHATASE, PUTATIVE): 0.98
fold change (relative to vehicle control = 1, protein TB927.10.5330 40S RIBOSOMAL PROTEIN S18, PUTATIVE): 1.1
fold change (relative to vehicle control = 1, protein TB927.10.5500 HY[…], CONSERVED): 0.92
fold change (relative to vehicle control = 1, protein TB927.10.6670 DYNEIN LIGHT CHAIN, PUTATIVE): 0.95
fold change (relative to vehicle control = 1, protein TB927.2.2440 […]-ATPASE SUBUNIT 6): 0.96
fold change (relative to vehicle control = 1, protein TB927.2.2510 HY[…], CONSERVED): 0.96
fold change (relative to vehicle control = 1, protein TB927.2.3800 MRNA […], PUTATIVE): 0.87
fold change (relative to vehicle control = 1, protein TB927.3.1120 GTP-BINDING NUCLEAR PROTEIN RTB2, PUTATIVE): 0.91
fold change (relative to vehicle control = 1, protein TB927.3.3490 HIGH MOBILITY GROUP PROTEIN, PUTATIVE): 0.88
fold change (relative to vehicle control = 1, protein TB927.4.4650 […] SYNTHASE, PUTATIVE): 0.79
fold change (relative to vehicle control = 1, protein TB927.4.5310 SERINE/THREONINE-PROTEIN KINASE A, PUTATIVE): 0.99
fold change (relative to vehicle control = 1, protein TB927.5.1930 HY[…], CONSERVED): 0.78
fold change (relative to vehicle control = 1, protein TB927.6.2200 HY[…], CONSERVED): 0.92
fold change (relative to vehicle control = 1, protein TB927.6.4140 PAR[…] COMPONENT, PUTATIVE): 0.9
fold change (relative to vehicle control = 1, protein TB927.7.2500 […] SUBUNIT 1): 0.95
fold change (relative to vehicle control = 1, protein TB927.7.2700 NADH-CYTOCHROME B5 REDUCTASE, PUTATIVE): 0.76
fold change (relative to vehicle control = 1, protein TB927.7.4480 ADENOSINE 5'-[…], PUTATIVE): 0.83
fold change (relative to vehicle control = 1, protein TB927.7.4500 HY[…], CONSERVED): 0.97
fold change (relative to vehicle control = 1, protein TB927.8.1510 ATP-DEPENDENT DEAD/H RNA HELICASE, PUTATIVE): 0.94
fold change (vs vehicle control, protein TB09.160.3710 PRO[…] NUCLEAR ANTIGEN (PCNA), PUTATIVE): 0.96
fold change (vs vehicle control, protein TB11.01.4370 HY[…], CONSERVED): 0.98
fold change (vs vehicle control, protein TB427TMP.01.5690 DRBD4): 0.94
fold change (vs vehicle control, protein TB427.01.1670 HY[…], CONSERVED): 0.91
fold change (vs vehicle control, protein TB427.04.760 GAMMA-ADAPTIN 1, PUTATIVE): 0.93
fold change (vs vehicle control, protein TB427.07.1420 HY[…], CONSERVED): 0.92
fold change (vs vehicle control, protein TB427.10.11760 PUMILIO/PUF RNA BINDING PROTEIN 6): 0.96
fold change (vs vehicle control, protein TB427.10.2290 CHAPERONE PROTEIN DNAJ, PUTATIVE): 0.8
fold change (vs vehicle control, protein TB927.5.1630 HY[…], CONSERVED): 0.91
